From patent US7186831B2, “5-halo-2-alkyl[1,2,4]triazolo[1,5-a]pyrimidin-7-amines” (priority 2001, dated 2007)

Test: log P by HPLC
Format: physicochemical
Conditions: EEC directive 79/831 Annex V. A8 by HPLC (gradient method, acetonitrile/0.1% aqueous phosphoric acid)

Row | SMILES | logP
1 | CCCN(CC1CCCO1)c1c(-c2c(F)cccc2F)c(Cl)nc2nc(C)nn12 (stereo not shown) [compound 347] | 3.39
2 | Cc1nc2nc(Cl)c(-c3ccc(F)cc3F)c(N(C)CCC#N)n2n1 [compound 411] | 2.34
3 | Cc1nc2nc(Cl)c(-c3c(F)cccc3F)c(N3CCCC(C)C3)n2n1 (stereo not shown) [compound 312] | 3.63
4 | CCNc1c(-c2ccccc2F)c(Cl)nc2nc(C)nn12 [compound 383] | 2.3
5 | Cc1nc2nc(Cl)c(-c3c(F)cc(F)cc3F)c(NC(C)C(C)C)n2n1 (stereo not shown) [compound 523] | 3.38
6 | COC(=O)C1CCN(c2c(-c3c(F)cccc3F)c(Cl)nc3nc(C)nn23)CC1 [compound 318] | 2.69
7 | Cc1nc2nc(Cl)c(-c3ccc(F)cc3F)c(N3CCC4(CC3)OCCO4)n2n1 [compound 284] | 2.68
8 | Cc1nc2nc(Cl)c(-c3ccc(F)cc3F)c(NC(C)CC(C)C)n2n1 (stereo not shown) [compound 301] | 3.7
9 | C=C(C)CN(CC)c1c(-c2c(F)cccc2Cl)c(Cl)nc2nc(C3CC3)nn12 [compound 449] | 4.61
10 | C=CC(C)Nc1c(-c2c(F)cc(F)cc2F)c(Cl)nc2nc(C)nn12 (stereo not shown) [compound 417] | 2.85
11 | Cc1nc2nc(Cl)c(-c3c(F)cccc3F)c(N3CCc4ccccc4C3)n2n1 [compound 327] | 3.22
12 | Cc1nc2nc(Cl)c(-c3ccc(F)cc3F)c(N3CC=CCC3)n2n1 [compound 283] | 3.11
13 | Cc1nc2nc(Cl)c(-c3c(F)cccc3Cl)c(N3CC=CCC3)n2n1 [compound 265] | 3.33
14 | CCCCONc1c(-c2c(F)cccc2F)c(Cl)nc2nc(C)nn12 [compound 434] | 2.96
15 | Cc1cccc(Nc2c(-c3ccc(F)cc3F)c(Cl)nc3nc(C)nn23)c1 [compound 456] | 3
16 | Cc1nc2nc(Cl)c(-c3ccccc3F)c(NC3CCC(C(F)(F)F)CC3)n2n1 (stereo not shown) [compound 400] | 3.48
17 | Cc1ccc(Nc2c(-c3ccc(F)cc3F)c(Cl)nc3nc(C4CC4)nn23)cc1 [compound 521] | 3.6
18 | C=C(C)CN(C)c1c(-c2c(F)cccc2Cl)c(Cl)nc2nc(C)nn12 [compound 275] | 3.63
19 | FC(F)(F)C1CCCN1c1c(-c2ccccc2Cl)c(Cl)nc2nc(C3CC3)nn12 (stereo not shown) [compound 501] | 4.41
20 | Cc1nc2nc(Cl)c(-c3ccccc3F)c(NCCC(F)(F)F)n2n1 [compound 395] | 2.7
21 | CC1=CCCN(c2c(-c3ccc(F)cc3F)c(Cl)nc3nc(C4CC4)nn23)C1 [compound 512] | 4.14
22 | C=C(C)CNc1c(-c2ccccc2F)c(Cl)nc2nc(C)nn12 [compound 394] | 2.68
23 | Cc1nc2nc(Cl)c(-c3c(F)cccc3F)c(N3CCC(O)CC3)n2n1 [compound 307] | 1.83
24 | Cc1nc2nc(Cl)c(-c3ccc(F)cc3F)c(N3CCCC(O)C3)n2n1 (stereo not shown) [compound 452] | 2.2
25 | Cc1nc2nc(Cl)c(-c3c(F)cccc3Cl)c(N3CCSCC3)n2n1 [compound 259] | 3.18

Same assay, conditions: HPLC, gradient method, acetonitrile/0.1% aqueous phosphoric acid; EEC directive 79/831 Annex V. A8

Row | SMILES | logP
26 | CC(=O)NC1CCN(c2c(-c3ccc(F)cc3F)c(Cl)nc3nc(C(F)(F)F)nn23)CC1 [compound 806] | 2.71
27 | CCC(C)Nc1c(-c2ccc(F)cc2Cl)c(Cl)nc2nc(C3CC3)nn12 (stereo not shown) [compound 623] | 3.9
28 | CC(Nc1c(-c2ccc(F)cc2Cl)c(Cl)nc2nc(C3CC3)nn12)C(F)(F)F (single isomer, unassigned) [compound 767] | 3.73
29 | Fc1cc(F)c(-c2c(Cl)nc3nc(C(F)(F)F)nn3c2N2CCCCC2C(F)(F)F)c(F)c1 (stereo not shown) [compound 109] | 4.76
30 | Cc1nc2nc(Cl)c(-c3ccccc3Cl)c(N(C)Cc3ccco3)n2n1 [compound 238] | 3.2
31 | FC(F)(F)CNc1c(-c2ccc(Cl)cc2Cl)c(Cl)nc2nc(C3CC3)nn12 [compound 742] | 3.72
32 | CCN(CCN(C)C)c1c(-c2c(F)cccc2F)c(Cl)nc2nc(C)nn12 [compound 567] | 1.46
33 | Cc1nc2nc(Cl)c(-c3c(F)cccc3F)c(NC3CC(C(F)(F)F)CC(C(F)(F)F)C3)n2n1 (stereo not shown) [compound 189] | 3.62
34 | Fc1cc(F)c(-c2c(Cl)nc3nc(C(F)(F)F)nn3c2N2CCSCC2)c(F)c1 [compound 110] | 4.09
35 | C#CCN(C)c1c(-c2ccc(F)cc2F)c(Cl)nc2nc(C3CC3)nn12 [compound 662] | 3.21
36 | Fc1ccc(-c2c(Cl)nc3nc(C4CC4)nn3c2NC2CCCC2)c(Cl)c1 [compound 624] | 4.13
37 | C=C(C)CN(CC)c1c(-c2c(F)cc(F)cc2F)c(Cl)nc2nc(C(F)(F)F)nn12 [compound 95] | 4.69
38 | Cc1nc2nc(Cl)c(-c3ccccc3Cl)c(NCC(C)(C)C)n2n1 [compound 211] | 3.57
39 | C=C(C)CN(CC)c1c(-c2ccc(F)cc2Cl)c(Cl)nc2nc(C)nn12 [compound 643] | 4.06
40 | Cc1nc2nc(Cl)c(-c3c(F)cccc3Cl)c(N3CCCCC3)n2n1 [compound 254] | 3.55
41 | CN(Cc1ccco1)c1c(-c2ccc(F)cc2F)c(Cl)nc2nc(C(F)(F)F)nn12 [compound 543] | 4.11
42 | C=C(C)CN(CC)c1c(-c2c(F)cccc2F)c(Cl)nc2nc(C3CC3)nn12 [compound 752] | 4.31
43 | Fc1cccc(Cl)c1-c1c(Cl)nc2nc(C3CC3)nn2c1N1CCOCC1 [compound 709] | 3.05
44 | C=C(C)CNc1c(-c2c(F)cccc2Cl)c(Cl)nc2nc(C)nn12 [compound 250] | 2.8

Row | SMILES | logP
45 | CCc1nc2nc(Cl)c(-c3c(F)cc(F)cc3F)c(NC)n2n1 [compound 93] | 2.44
46 | C=C(C)CN(C)c1c(-c2ccc(F)cc2F)c(Cl)nc2nc(C)nn12 [compound 206] | 3.41
47 | Cc1nc2nc(Cl)c(-c3c(F)cc(F)cc3F)c(NC(C)C(C)C)n2n1 (stereo not shown) [compound 134] | 3.37
48 | Cc1nc2nc(Cl)c(-c3c(F)cccc3F)c(N(C)CC#N)n2n1 [compound 564] | 2.18
49 | Cc1nc2nc(Cl)c(-c3c(F)cc(F)cc3F)c(N(C)CC3OCCO3)n2n1 [compound 151] | 2.67
50 | CCN(CCN(C)C)c1c(-c2ccc(F)cc2F)c(Cl)nc2nc(C3CC3)nn12 [compound 723] | 1.65
51 | Cc1nc2nc(Cl)c(-c3ccc(F)cc3F)c(NC(C)C3CCCCC3)n2n1 (stereo not shown) [compound 198] | 4.24
52 | Fc1cc(F)c(-c2c(Cl)nc3nc(C4CC4)nn3c2NCC(F)(F)F)c(F)c1 [compound 672] | 3.25
53 | CCN(CCC#N)c1c(-c2ccc(F)cc2F)c(Cl)nc2nc(C3CC3)nn12 [compound 725] | 3.07
54 | Cc1nc2nc(Cl)c(-c3c(F)cccc3Cl)c(N(N)CC(C)C)n2n1 [compound 130] | 3.12
55 | Cc1nc2nc(Cl)c(-c3c(F)cc(F)cc3F)c(NCC(F)(F)F)n2n1 [compound 13] | 2.69
56 | OC1CCN(c2c(-c3ccc(F)cc3F)c(Cl)nc3nc(C(F)(F)F)nn23)C1 (stereo not shown) [compound 555] | 2.76
57 | CCOC(=O)CN(c1c(-c2ccc(F)cc2F)c(Cl)nc2nc(C(F)(F)F)nn12)C1CC1 [compound 554] | 4.28
58 | CCONc1c(-c2c(F)cccc2F)c(Cl)nc2nc(C)nn12 [compound 136] | 2.22
59 | CC1CN(c2c(-c3ccc(F)cc3F)c(Cl)nc3nc(C4CC4)nn23)CC(C)O1 (stereo not shown) [compound 736] | 3.63
60 | Fc1cc(F)c(-c2c(Cl)nc3nc(C(F)(F)F)nn3c2N2CCCC2)c(F)c1 [compound 103] | 3.92
61 | CCN(CCC#N)c1c(-c2c(F)cccc2F)c(Cl)nc2nc(C)nn12 [compound 569] | 2.41
62 | Cc1nc2nc(Cl)c(-c3c(F)cccc3F)c(N3CCCC3)n2n1 [compound 170] | 2.61
63 | CC(C)(C)Nc1c(-c2ccc(F)cc2F)c(Cl)nc2nc(C(F)(F)F)nn12 [compound 535] | 4.19

Row | SMILES | logP
64 | Fc1cccc(F)c1-c1c(Cl)nc2nc(C3CC3)nn2c1N1CC=CCO1 [compound 770] | 3.32
65 | Fc1ccc(-c2c(Cl)nc3nc(C4CC4)nn3c2NCC2CC2)c(Cl)c1 [compound 625] | 3.63
66 | CCC(C)Nc1c(-c2ccc(F)cc2F)c(Cl)nc2nc(C3CC3)nn12 (stereo not shown) [compound 647] | 3.57
67 | CCCN(CC1CC1)c1c(-c2ccccc2Cl)c(Cl)nc2nc(C)nn12 [compound 243] | 4.07
68 | CCc1nc2nc(Cl)c(-c3c(F)cc(F)cc3F)c(N3CCOCC3)n2n1 [compound 92] | 2.8
69 | CCN(CC)c1c(-c2c(F)cc(F)cc2F)c(Cl)nc2nc(C)nn12 [compound 63] | 3.23
70 | Cc1nc2nc(Cl)c(-c3c(F)cccc3F)c(N3CCSCC3)n2n1 [compound 179] | 2.84
71 | CC1CCCN1c1c(-c2c(F)cccc2Cl)c(Cl)nc2nc(C3CC3)nn12 (stereo not shown) [compound 702] | 3.94
72 | CC(NNc1c(-c2ccc(F)cc2Cl)c(Cl)nc2nc(C3CC3)nn12)C1CC1 (stereo not shown) [compound 620] | 3.81
73 | CN(Cc1ccco1)c1c(-c2ccc(F)cc2F)c(Cl)nc2nc(C3CC3)nn12 [compound 667] | 3.63
74 | CCN(CCOC)c1c(-c2c(F)cc(F)cc2F)c(Cl)nc2nc(C)nn12 [compound 29] | 2.93
75 | Cc1nc2nc(Cl)c(-c3c(F)cc(F)cc3F)c(N3C(C)C=CC3C)n2n1 (stereo not shown) [compound 117] | 3.52
76 | CC(C)CN(N)c1c(-c2c(F)cc(F)cc2F)c(Cl)nc2nc(C3CC3)nn12 [compound 773] | 3.65
77 | COC(=O)CN(C)c1c(-c2ccc(F)cc2F)c(Cl)nc2nc(C3CC3)nn12 [compound 720] | 2.95
78 | CN(C)CCCN(C)c1c(-c2ccc(F)cc2F)c(Cl)nc2nc(C3CC3)nn12 [compound 665] | 1.61
79 | Cc1nc2nc(Cl)c(-c3c(F)cc(F)cc3F)c(N3CCC(C)CC3)n2n1 [compound 166] | 3.9
80 | CC(C)CNc1c(-c2ccc(F)cc2F)c(Cl)nc2nc(C(F)(F)F)nn12 [compound 525] | 4.03
81 | COC(=O)C1CCCCN1c1c(-c2ccc(F)cc2F)c(Cl)nc2nc(C(F)(F)F)nn12 (stereo not shown) [compound 804] | 4.32
82 | Cc1nc2nc(Cl)c(-c3c(F)cccc3F)c(N3CCCCO3)n2n1 [compound 524] | 2.84
